IC50 and EC50 data for 22 molecules are collected here from patent US10336762B2 (priority 2017, dated 2019).

pEC50, pIC50: −log10 of the molar value.

Assay [1] deals with IRAK4 enzyme (Homo sapiens (Human), UniProt Q9NWZ3). Description: biochemical. The class given is biochemical. Particulars: IRAK4 enzyme, TR-FRET, 500 μM ATP.
Assay [2] deals with TNFα. Description: cells. The class given is cell-based, human. The settings on record: Homo sapiens, Monocyte, LPS-stimulated human monocytes, TNFα by TR-FRET; read-out: EC50 TNF.

Chain of IRAK4 enzyme (Q9NWZ3 whole entry): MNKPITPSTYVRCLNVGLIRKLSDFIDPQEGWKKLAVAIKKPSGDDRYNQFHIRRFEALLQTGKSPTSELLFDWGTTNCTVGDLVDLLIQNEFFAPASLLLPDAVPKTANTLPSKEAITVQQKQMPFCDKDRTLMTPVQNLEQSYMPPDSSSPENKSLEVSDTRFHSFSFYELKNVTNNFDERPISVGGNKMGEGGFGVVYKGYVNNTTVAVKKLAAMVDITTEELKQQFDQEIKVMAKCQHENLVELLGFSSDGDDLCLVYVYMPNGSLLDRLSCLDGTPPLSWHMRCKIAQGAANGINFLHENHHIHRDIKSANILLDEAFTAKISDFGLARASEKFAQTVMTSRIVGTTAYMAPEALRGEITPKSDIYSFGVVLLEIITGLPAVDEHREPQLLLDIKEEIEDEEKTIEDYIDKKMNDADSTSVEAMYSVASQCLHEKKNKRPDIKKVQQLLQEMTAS

For the molecule `CC(C)(O)[C@H](F)CNC(=O)c1cnc(-c2ccc3cc(C#N)cnn23)cc1Nc1cnc2c(c1)OCCN2` [Example 855, (R)-6-(3-cyanopyrrolo[1,2-b]pyridazin-7-yl)-4-((3,4-dihydro-2H-pyrido[3,2-b][1,4]oxazin-7-yl)amino)-N-(2-fluoro-3-hydroxy-3-methylbutyl)nicotinamide], the negative logarithm of the IC50 (pIC50) in assay [1] was over 9.00. Besides, the pEC50 in assay [2] is 8.05.
With `CN1CCOc2cc(Nc3cc(-c4ccc5cc(C#N)cnn45)ncc3C(=O)NC[C@@H](F)C(C)(C)O)cnc21` [Example 856, (R)-6-(3-cyanopyrrolo[1,2-b]pyridazin-7-yl)-N-(2-fluoro-3-hydroxy-3-methylbutyl)-4-((4-methyl-3,4-dihydro-2H-pyrido[3,2-b][1,4]oxazin-7-yl)amino)nicotinamide], in assay [1], the negative logarithm of the IC50 (pIC50) is 9.00. Also, the pEC50 in assay [2] was 7.62.
The like results for `CC(C)(O)[C@H](F)CNC(=O)c1cnc(-c2ccc3cc(C#N)cnn23)cc1Nc1cncc(OCC(F)(F)F)c1` [Example 857, (R)-6-(3-cyanopyrrolo[1,2-b]pyridazin-7-yl)-N-(2-fluoro-3-hydroxy-3-methylbutyl)-4-((5-(2,2,2-trifluoroethoxy)pyridin-3-yl)amino)nicotinamide] were, in that order, over 9.00 and 8.05.
The like results for `N#Cc1cnn2c(-c3cc(Nc4cnc5c(c4)OCCO5)c(C(=O)N[C@H]4CC[C@H](NC(=O)C5CC5)CC4)cn3)ccc2c1` [Example 858, 6-(3-cyanopyrrolo[1,2-b]pyridazin-7-yl)-N-((1r,4r)-4-(cyclopropanecarboxamido)cyclohexyl)-4-((2,3-dihydro-[1,4]dioxino[2,3-b]pyridin-7-yl)amino)nicotinamide] were, in that order, over 9.00 and 7.70.
The like results for `CN1CCOc2cc(Nc3cc(-c4ccc5cc(C#N)cnn45)ncc3C(=O)N[C@H]3CC[C@H](NC(=O)C4CC4)CC3)ccc21` [Example 859, 6-(3-cyanopyrrolo[1,2-b]pyridazin-7-yl)-N-((1r,4r)-4-(cyclopropanecarboxamido)cyclohexyl)-4-((4-methyl-3,4-dihydro-2H-benzo[b][1,4]oxazin-7-yl)amino)nicotinamide] were, in that order, 8.52 and 7.05.
With `CN1CCOc2cc(Nc3cc(-c4ccc5cc(C#N)cnn45)ncc3C(=O)N[C@H]3CC[C@H](NC(=O)N4CCOCC4)CC3)ccc21` [Example 860, N-((1r,4r)-4-(6-(3-cyano-pyrrolo[1,2-b]pyridazin-7-yl)-4-((4-methyl-3,4-dihydro-2H-benzo[b][1,4]oxazin-7-yl)amino)nicotin-amido)cyclohexyl) morpholine-4-carboxamide], the negative-log IC50 (pIC50) in assay [1] was 8.70. Also, the pEC50 in assay [2] was 7.51.
In assay [1], `N#Cc1cnn2c(-c3cc(Nc4cnc5c(c4)OCCO5)c(C(=O)N[C@H]4CC[C@H](NC(=O)N5CCOCC5)CC4)cn3)ccc2c1` [Example 861, N-((1r,4r)-4-(6-(3-cyano-pyrrolo[1,2-b]pyridazin-7-yl)-4-((2,3-dihydro-[1,4]dioxino[2,3-b]pyridin-7-yl)amino)nicotinamido)cyclohexyl)morpholine-4-carboxamide] gave a negative-log IC50 (pIC50) of over 9.00. The pEC50 in assay [2] is 7.80.
Molecule `CC(C)(O)[C@H](F)CNC(=O)c1cnc(-c2ccc3cc(C#N)cnn23)cc1Nc1cnc2c(c1)COCC2` [Example 862, (R)-6-(3-cyanopyrrolo[1,2-b]pyridazin-7-yl)-4-((7,8-dihydro-5H-pyrano[4,3-b]pyridin-3-yl)amino)-N-(2-fluoro-3-hydroxy-3-methylbutyl)nicotinamide] showed a negative logarithm of the IC50 (pIC50) in assay [1] of over 9.00. Also, the negative-log EC50 (pEC50) in assay [2] was 7.34.
In turn, `CC(C)(O)[C@H](F)CNC(=O)c1cnc(-c2ccc3cc(C#N)cnn23)cc1Nc1ccc2c(c1)CNC2` [Example 863, (R)-6-(3-cyanopyrrolo[1,2-b]pyridazin-7-yl)-N-(2-fluoro-3-hydroxy-3-methylbutyl)-4-(isoindolin-5-ylamino)nicotinamide] showed a pIC50 in assay [1] of over 9.00. Further, in assay [2], the negative-log EC50 (pEC50) is 7.13.
The like results for `CC(C)(O)[C@H](F)CNC(=O)c1cnc(-c2ccc3cc(C#N)cnn23)cc1Nc1ccc2c(c1)CN(C1COC1)C2` [Example 864, (R)-6-(3-cyanopyrrolo[1,2-b]pyridazin-7-yl)-N-(2-fluoro-3-hydroxy-3-methylbutyl)-4-((2-(oxetan-3-yl)isoindolin-5-yl)amino) nicotinamide] were, in that order, over 9.00 and 7.16.
In assay [1], `COC(=O)NC1(c2ccc(Nc3cc(-c4ccc5cc(C#N)cnn45)ncc3C(=O)N[C@H]3CC[C@H](NC(=O)C4CC4)CC3)cc2)CC1` [Example 866, methyl (1-(4-((2-(3-cyano-pyrrolo[1,2-b]pyridazin-7-yl)-5-(((1r,4r)-4-(cyclopropanecarboxamido)cyclohexyl)carbamoyl)pyridin-4-yl)amino)phenyl)cyclopropyl)carbamate] had a pIC50 of 9.00. In addition, the negative logarithm of the EC50 (pEC50) in assay [2] was 7.43.
The like results for `[2H]C([2H])([2H])OC(=O)NC[C@H]1C[C@H](Nc2cc(-c3ccc4cc(C#N)cnn34)ncc2C(=O)NC[C@@H](F)C(C)(C)O)C1` [Example 867, methyl-d3 (((1R,3r)-3-((2-(3-cyanopyrrolo[1,2-b]pyridazin-7-yl)-5-(((R)-2-fluoro-3-hydroxy-3-methylbutyl)carbamoyl)pyridin-4-yl)amino)cyclo-butyl)methyl)carbamate] were, in that order, over 9.00 and 8.22.
The like results for `COC(=O)N1CCN(c2ccc(Nc3cc(-c4ccc5cc(C#N)cnn45)ncc3C(=O)NC[C@@H](F)C(C)(C)O)cn2)CC1` [Example 870, (R)-methyl 4-(5-((2-(3-cyanopyrrolo[1,2-b]pyridazin-7-yl)-5-((2-fluoro-3-hydroxy-3-methylbutyl)carbamoyl)pyridin-4-yl)amino)pyridin-2-yl)piperazine-1-carboxylate] were, in that order, 9.00 and 7.09.
For the molecule `CC(C)(O)[C@H](F)CNC(=O)c1cnc(-c2ccc3cc(C#N)cnn23)cc1Nc1ccc(N2CCN(C3COC3)CC2)nc1` [Example 871, (R)-6-(3-cyanopyrrolo[1,2-b]pyridazin-7-yl)-N-(2-fluoro-3-hydroxy-3-methylbutyl)-4-((6-(4-(oxetan-3-yl)piperazin-1-yl)pyridin-3-yl)amino)nicotinamide], the pIC50 in assay [1] was 9.00. Moreover, in assay [2], the negative logarithm of the EC50 (pEC50) was 7.29.
As for `CC(C)(O)[C@H](F)CNC(=O)c1cnc(-c2ccc3cc(C#N)cnn23)cc1Nc1ccc(CNCC(F)F)cc1` [Example 872, (R)-6-(3-cyanopyrrolo[1,2-b]pyridazin-7-yl)-4-((4-(((2,2-difluoroethyl)amino)methyl)phenyl)amino)-N-(2-fluoro-3-hydroxy-3-methylbutyl)nicotinamide], in assay [1], the pIC50 is over 9.00. For the same molecule, the pEC50 in assay [2] was 7.85.
The like results for `CC1(C(=O)NC[C@H]2C[C@H](Nc3cc(-c4ccc5cc(C#N)cnn45)ncc3C(=O)NC[C@@H](F)C(C)(C)O)C2)COC1` [Example 873, 6-(3-cyanopyrrolo[1,2-b]pyridazin-7-yl)-N-((R)-2-fluoro-3-hydroxy-3-methylbutyl)-4-(((1r,3R)-3-((3-methyloxetane-3-carboxamido)methyl)cyclobutyl)amino) nicotinamide] were, in that order, over 9.00 and 6.99.
The like results for `CC(C)(O)[C@H](F)CNC(=O)c1cnc(-c2ccc3cc(C#N)cnn23)cc1Nc1ccc(C(C)(C)N2CCOC2=O)cc1` [Example 874, (R)-6-(3-cyanopyrrolo[1,2-b]pyridazin-7-yl)-N-(2-fluoro-3-hydroxy-3-methylbutyl)-4-((4-(2-(2-oxooxazolidin-3-yl)propan-2-yl)phenyl)amino)nicotinamide] were, in that order, over 9.00 and 7.89.
In turn, `CC(C)(O)[C@H](F)CNC(=O)c1cnc(-c2ccc3cc(C#N)cnn23)cc1Nc1ccc(C(C)(C)N2CCCC2=O)cc1` [Example 875, (R)-6-(3-cyanopyrrolo[1,2-b]pyridazin-7-yl)-N-(2-fluoro-3-hydroxy-3-methyl-butyl)-4-((4-(2-(2-oxo-pyrrolidin-1-yl)propan-2-yl)phenyl)amino)nicotinamide] showed a negative logarithm of the IC50 (pIC50) in assay [1] of 8.70. The pEC50 in assay [2] is 7.19.
The molecule `CC(C)(O)[C@H](F)CNC(=O)c1cnc(-c2ccc3cc(C#N)cnn23)cc1Nc1ccc(C2(N3CCOC3=O)CC2)cc1` [Example 876, (R)-6-(3-cyanopyrrolo[1,2-b]pyridazin-7-yl)-N-(2-fluoro-3-hydroxy-3-methylbutyl)-4-((4-(1-(2-oxooxazolidin-3-yl)cyclo-propyl)phenyl)amino) nicotinamide] showed a pIC50 in assay [1] of over 9.00. For the same molecule, the negative-log EC50 (pEC50) in assay [2] was 7.62.
The like results for `CC(C)(O)[C@H](F)CNC(=O)c1cnc(-c2ccc3cc(C#N)cnn23)cc1Nc1ccc(N2CCCC2)nc1` [Example 877, (R)-6-(3-cyano-pyrrolo[1,2-b]pyridazin-7-yl)-N-(2-fluoro-3-hydroxy-3-methylbutyl)-4-((6-(pyrrolidin-1-yl)pyridin-3-yl)amino) nicotinamide] were, in that order, 8.70 and 7.34.
The like results for `CC(=O)NC[C@@H]1CCCN1c1ccc(Nc2cc(-c3ccc4cc(C#N)cnn34)ncc2C(=O)NC[C@@H](F)C(C)(C)O)cn1` [Example 878, 4-((6-((S)-2-(acetamidomethyl)pyrrolidin-1-yl)pyridin-3-yl)amino)-6-(3-cyanopyrrolo[1,2-b]pyridazin-7-yl)-N-((R)-2-fluoro-3-hydroxy-3-methylbutyl)nicotinamide] were, in that order, 8.70 and 6.85.
The like results for `COC(=O)NC[C@@H]1CCCN1c1ccc(Nc2cc(-c3ccc4cc(C#N)cnn34)ncc2C(=O)NC[C@@H](F)C(C)(C)O)cn1` [Example 879, methyl (((S)-1-(5-((2-(3-cyanopyrrolo[1,2-b]pyridazin-7-yl)-5-(((R)-2-fluoro-3-hydroxy-3-methylbutyl)carbamoyl)pyridin-4-yl)amino)pyridin-2-yl)pyrrolidin-2-yl)methyl)carbamate] were, in that order, 9.00 and 6.65.
